≈ marks a conversion by molar mass, not a printed value. Like-named read-outs stand apart in the source and are kept apart here.
Tests used:
A2780 = assay: Chemosensitivity, one hour drug exposure, MTT assay, monolayer; assay type: cell-based, human
Description: (§1) Cell culture and chemosensitivity studies. […] H460 (human NSCLC) cell line was obtained from the American Type Culture Collection (ATCC). HT-29 (human colon carcinoma), RT112/83 (human bladder carcinoma epithelial), EJ138 (human bladder carcinoma) and T24/83 (human bladder transitional cell carcinoma) cell lines were obtained from the European Collection of Animal Cell Cultures (ECACC). A2780 (human ovarian carcinoma) and BE (human colon carcinoma) cells were gifts from Dr T Ward (Paterson Institute, Manchester, UK). All cell lines were maintained as monolayer cultures in RPNII 1640 culture medium supplemented with fetal calf serum (10%), sodium pyruvate (2 mM), L-glutamine (2 mM), penicillin/streptomycin (50 IU/ml/50 jug/ml) and buffered with HEPES (25 mK). All cell culture materials were purchased from Gibco BRL (Paisley, UK). […] Calibration curves were conducted over a broad range of pH values in culture medium (pH 3.5 to 11) and the stability of the pH conditions monitored over a one hour incubation period at 37° C.

RT112 = assay: as above; assay type: cell-based, human
Description: as §1

EJ138 = assay: as above; assay type: cell-based, human
Description: as §1

H460 = assay: as above; assay type: cell-based, human
Description: as §1

BE = assay: as above; assay type: cell-based, human
Description: as §1

HT-29 = assay: as above; assay type: cell-based, human
Description: as §1

T24/83 = assay: as above; assay type: cell-based, human
Description: as §1

histocultures = details: cited from earlier work
recombinant human NQO1 = target: T1, recombinant human NQO1 (Homo sapiens, UniProt P15559); assay: Substrate specificity: reduction of EO9 by NQO1, cytochrome c reporter; assay type: biochemical
T1 construct: made in house; host or cells: E. coli (pKK233-2 plasmid, IPTG induction)
T1 sequence (P15559 whole entry): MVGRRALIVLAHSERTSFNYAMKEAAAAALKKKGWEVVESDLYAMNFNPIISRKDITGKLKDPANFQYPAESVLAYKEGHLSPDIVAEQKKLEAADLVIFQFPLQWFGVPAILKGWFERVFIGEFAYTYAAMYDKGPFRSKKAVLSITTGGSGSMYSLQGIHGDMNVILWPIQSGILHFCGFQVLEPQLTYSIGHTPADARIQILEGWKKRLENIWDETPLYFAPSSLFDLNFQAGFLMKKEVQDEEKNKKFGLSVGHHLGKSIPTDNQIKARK
Description: Substrate specificity. The influence of acidic pHe on substrate specificity for purified human NQ01 was determined as described previously (Phillips 1996, Walton et al, 1991). NQ01 mediated reduction of the quinone to the hydroquinone species is difficult to detect by conventional assays thereby necessitating the use of a reporter signal generating step. In this assay, the hydroquinone acts as an intermediate electron acceptor which subsequently reduces cytochrome c which can readily be detected spectrophotometrically. Recombinant human NQ01 was derived from E. coli transformed with the pKK233-2 expression plasmid containing the full length cDNA sequence for human NQ01 isolated from the (Beall et al, 1994). Following IPTG induction, NQO1 was purified by cybacron blue affinity chromatography, details of which are described elsewhere (Phillips, 1996). […] Reduction of EO9 by recombinant human NQO1 was determined at pH 6.0 and 7.4 by measuring the rate of reduction of cytochrome c was measured at 550 nm on a Beckman DU 650 spectrophotometer according to previously published methods (Phillips, 1996).

[1] = phase I clinical trials; cited from earlier work
[2] = Stability of EO9 at acidic pH; details: buffer
[3] = in humans; cited from earlier work
[4] = tested on: NSCLC, gastric, breast, pancreatic and colon cancers; details: phase II trials; cited from earlier work
[5] = Solubility of EO9 in formulation vehicle and water
[6] = tested on: NQ01 rich and deficient tumors; details: intratumoural administration; cited from earlier work
H460 cells = assay: Response of H460 cells to EO9 in the presence or absence of FAA (2 mM); assay type: cell-based, human; details: for IC50: Homo sapiens, NCI-H460, H460 cells
Description: Briefly, H460 cells (NQO1 rich) were plated into 96 well plates at a density of 2×10^3 cells per well. Following an overnight incubation at 37° C., medium was replaced with fresh medium (pH 7.4) containing a non-toxic concentration of FAA (2 mM) and incubated for one hour at 37° C. Medium was then replaced with fresh medium containing EO9 (range of drug concentrations) and FAA (2 mM) at either pHe 7.4 or 6.0. Following a further one hour incubation at 37° C., cells were washed twice with HBSS and incubated at 37° C. in growth medium for five days. Chemosensitivity was determined by the NM assay as described above and results were expressed in terms of IC50 values, selectivity ratios (IC50 at pHe 7.4/IC50 at pHe 6.0) and protection ratios (ICSO FAA/EO9 combinations/IC50 for EO9 alone).

[7] = tested on: HT-29 multicell spheroids; assay: Chemosensitivity of HT-29 multicell spheroids; assay type: cell-based, human; details: for IC50: Homo sapiens, HT-29, 1 h, spheroids
Description: HT-29 multicell spheroids were prepared by seeding 5×10^5 cells into T25 flasks which had been based coated with agar (1% w/v) and incubated for 24 h at 37° C. Immature spheroids were then transferred to a spinner flask (Techne) containing 250 ml of RPMI 1640 growth medium and spheroids were kept in suspension by stirring at 50 rpm. When spheroids reached a diameter of approximately 500 Am, they were harvested for chemosensitivity studies. Multicell spheroids were exposed to a range of EO9 concentrations at pHe 6.0 and 7.4 for one hour at 37° C. Following drug incubation, spheroids were washed twice in HBSS prior to dissagregation into single cells using trypsin EDTA. Disaggregated spheroids were then washed in HBSS and then plated into 96 well plates (1×10^3 cells per well) and incubated at 37° C. for four days. Chemosensitivity was assessed using the NM assay as described elsewhere (Phillips et al, 1992).

Compound: CO[C@@]12[C@H](COC(N)=O)C3=C(C(=O)C(C)=C(N)C3=O)N1C[C@@H]1N[C@@H]12 [MMC, Mitomycin C, reference compound]
- IC50 (A2780; A2780, pHe 6.0, one hour exposure, read-out: IC50 pHe 6.0): 1400 ± 130 nM
- IC50 (A2780; A2780, pHe 7.4, one hour exposure, read-out: IC50 pHe 7.4): 2400 ± 340 nM
- IC50 (RT112; RT112, pHe 6.0, one hour exposure, read-out: IC50 pHe 6.0): 2000 ± 500 nM
- IC50 (RT112; RT112, pHe 7.4, one hour exposure, read-out: IC50 pHe 7.4): 3350 ± 250 nM
- IC50 (EJ138; EJ138, pHe 6.0, one hour exposure, read-out: IC50 pHe 6.0): 1400 ± 250 nM
- IC50 (EJ138; EJ138, pHe 7.4, one hour exposure, read-out: IC50 pHe 7.4): 1600 ± 200 nM
- IC50 (H460; H460, pHe 6.0, one hour exposure, read-out: IC50 pHe 6.0): 220 ± 130 nM
- IC50 (H460; H460, pHe 7.4, one hour exposure, read-out: IC50 pHe 7.4): 900 ± 200 nM
- IC50 (BE; BE, pHe 6.0, one hour exposure, read-out: IC50 pHe 6.0): 4400 ± 215 nM
- IC50 (BE; BE, pHe 7.4, one hour exposure, read-out: IC50 pHe 7.4): 7000 ± 192 nM
- IC50 (HT-29; HT-29, pHe 6.0, one hour exposure, read-out: IC50 pHe 6.0): 500 ± 240 nM
- IC50 (HT-29; HT-29, pHe 7.4, one hour exposure, read-out: IC50 pHe 7.4): 1050 ± 210 nM
- IC50 (T24/83; T24/83, pHe 6.0, one hour exposure, read-out: IC50 pHe 6.0): 2100 ± 800 nM
- IC50 (T24/83; T24/83, pHe 7.4, one hour exposure, read-out: IC50 pHe 7.4): 2150 ± 93 nM
- difference in toxicity between physiological and acidic pHe (histocultures): no difference in toxicity

Compound: Cn1c(/C=C/CO)c(CO)c2c1C(=O)C=C(N1CC1)C2=O [EO9, 5-(1-aziridinyl)-3-(hydroxymethyl)-2-[(E)-3-hydroxyprop-1-enyl]-1-methyl-1H-indole-4,7-dione]
- rate of reduction of EO9 by purified human NQO1 (recombinant human NQO1; pH 6.0): 21.30±1.50 nmol cytochrome c reduced/min/mg protein
- specific activity, cytochrome c reduced/min/mg protein (recombinant human NQO1; pH 6.0): 21.30±1.5 pmol cytochrome c reduced/min/mg protein
- rate of reduction of EO9 by purified human NQO1 (recombinant human NQO1; pH 7.4): 21.10±2.30 nmol cytochrome c reduced/min/mg protein
- specific activity, cytochrome c reduced/min/mg protein (recombinant human NQO1; pH 7.4): 21.10±2.3 pmol cytochrome c reduced/min/mg protein
- clinical response [1]: three partial remissions
- half-life ([2]; pH 5.5): 37 min
- half-life ([2]; pH 6): 150 min
- plasma elimination half-life [3]: 10 min
- clinical activity [4]: no activity
- solubility ([5]; tert-butanol formulation vehicle, aqueous with cosolvent or surfactant or cyclodextrin): ≥ 9500 µg/mL
- solubility ([5]; water): ~200 µg/mL (≈ 694 µM)
- tumor growth delay [6]: significant growth delays
- SR (selectivity ratio) = IC50 at pH 7.4/IC50 at pH 6.0 (A2780; A2780): 3.92
- IC50 (A2780; Homo sapiens, A2780, 1 h, read-out: IC50 pHe 6.0): 51 ± 14 nM
- IC50 (A2780; Homo sapiens, A2780, 1 h, read-out: IC50 pHe 7.4): 200 ± 50 nM
- IC50 (RT112; Homo sapiens, RT-112, 1 h, read-out: IC50 pHe 6.0): 61 ± 13 nM
- IC50 (RT112; Homo sapiens, RT-112, 1 h, read-out: IC50 pHe 7.4): 1050 ± 75 nM
- SR (selectivity ratio) = IC50 at pH 7.4/IC50 at pH 6.0 (RT112; RT112): 17.21
- SR (selectivity ratio) = IC50 at pH 7.4/IC50 at pH 6.0 (EJ138; EJ138): 7.94
- IC50 (EJ138; Homo sapiens, EJ138, 1 h, read-out: IC50 pHe 6.0): 39 ± 7 nM
- IC50 (EJ138; Homo sapiens, EJ138, 1 h, read-out: IC50 pHe 7.4): 310 ± 95 nM
- SR (selectivity ratio) = IC50 at pH 7.4/IC50 at pH 6.0 (H460; H460): 6.31
- IC50 (H460; Homo sapiens, NCI-H460, 1 h, read-out: IC50 pHe 6.0): 9.5 ± 2 nM
- IC50 (H460; Homo sapiens, NCI-H460, 1 h, read-out: IC50 pHe 7.4): 60 ± 10 nM
- SR (selectivity ratio) = IC50 at pH 7.4/IC50 at pH 6.0 (BE; BE): 4.07
- IC50 (BE; Homo sapiens, 1 h, read-out: IC50 pHe 6.0): 1300 ± 75 nM
- IC50 (BE; Homo sapiens, 1 h, read-out: IC50 pHe 7.4): 5300 ± 169 nM
- SR (selectivity ratio) = IC50 at pH 7.4/IC50 at pH 6.0 (HT-29; HT-29): 4.13
- IC50 (HT-29; Homo sapiens, HT-29, 1 h, read-out: IC50 pHe 6.0): 29 ± 10 nM
- IC50 (HT-29; Homo sapiens, HT-29, 1 h, read-out: IC50 pHe 7.4): 120 ± 53 nM
- IC50 (T24/83; Homo sapiens, T24/83, 1 h, read-out: IC50 pHe 6.0): 60 ± 18 nM
- IC50 (T24/83; Homo sapiens, T24/83, 1 h, read-out: IC50 pHe 7.4): 290 ± 65 nM
- SR (selectivity ratio) = IC50 at pH 7.4/IC50 at pH 6.0 (T24/83; T24/83): 4.83
- SR = Selectivity Ratio, IC50 at pHe 7.4 divided by IC50 at pHe 6.0 (H460 cells; H460 cells, with or without FAA 2 mM): 6.31
- IC50 (H460 cells; pHe 6.0, with or without FAA 2 mM): 9.5 ± 2.6 nM
- IC50 (H460 cells; pHe 7.4, with or without FAA 2 mM): 60 ± 8.1 nM
- ratio of IC50 values for spheroids to monolayers ([7]; HT-29, pHe 6.0): 341
- ratio of IC50 values for spheroids to monolayers ([7]; HT-29, pHe 7.4): 202
- IC50 ([7]; pHe 6.0, one hour exposure): 9890 ± 890 nM
- IC50 ([7]; pHe 7.4, one hour exposure): 24200 ± 3290 nM
- cells killed in spheroids ([7]; at higher doses): > 90%
